Reference: a compilation of properties of binary mixtures (doi:10.1016/j.molliq.2022.120564)

Experiment: xn = mol fraction of the nth substance listed
Conditions: 298.15 K, 101.3 kPa

CC(=O)[O-].CCCC[N+]1(C)CCCC1 + O
Conditions | electrical conductivity [S/m]
x1 = 0.005 | 1.84
x1 = 0.029 | 2.8
x1 = 0.046 | 2.63
x1 = 0.069 | 2.17
x1 = 0.095 | 1.79
x1 = 0.111 | 1.26
x1 = 0.138 | 1.18
x1 = 0.215 | 0.8
x1 = 0.253 | 0.575
x1 = 0.305 | 0.495
x1 = 0.396 | 0.339
x1 = 0.5 | 0.193
x1 = 0.658 | 0.142
